According to article PMC8557913, “Characterization of Phosphopantetheinyl Hydrolase from Mycobacterium tuberculosis” (Microbiology Spectrum, 2021):

Tests used:
PptH (Rv2795c) = PptH (Rv2795c) (Mycobacterium tuberculosis, UniProt I6YEE1); experiment: biochemical
Sfp = target: T1, Sfp (Bacillus subtilis, UniProt P39135); experiment: transfer of biotin-labelled Ppt to apo-carrier protein, streptavidin blot; type: biochemical; settings: labelled compound; co-substrate apo-AcpM (also PKS13 ACP, EcEntB, EcACP, KpACP, PaACP); 50 mM Tris-HCl pH 7.5, 15 mM MgCl2, 37°C
T1 sequence (P39135 1-224): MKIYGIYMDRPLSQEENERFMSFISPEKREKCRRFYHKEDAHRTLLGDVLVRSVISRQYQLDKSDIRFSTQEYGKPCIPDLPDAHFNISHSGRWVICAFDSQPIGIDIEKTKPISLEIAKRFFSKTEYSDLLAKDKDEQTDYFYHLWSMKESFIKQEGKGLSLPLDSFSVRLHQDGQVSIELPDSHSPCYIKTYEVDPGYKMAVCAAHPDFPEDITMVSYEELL

PptH (Rv2795c), sequence (I6YEE1 1-310): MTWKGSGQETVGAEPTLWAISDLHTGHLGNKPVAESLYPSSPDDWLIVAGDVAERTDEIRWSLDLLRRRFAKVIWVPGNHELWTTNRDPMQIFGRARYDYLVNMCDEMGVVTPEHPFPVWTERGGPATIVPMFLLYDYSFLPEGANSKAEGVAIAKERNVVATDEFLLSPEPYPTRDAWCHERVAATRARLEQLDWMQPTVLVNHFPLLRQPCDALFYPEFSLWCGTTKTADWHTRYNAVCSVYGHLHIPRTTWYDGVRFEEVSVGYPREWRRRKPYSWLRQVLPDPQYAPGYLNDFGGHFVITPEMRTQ

| SMILES | IC50 (PptH (Rv2795c)) | transfer of biotin-labelled Ppt to apo-carrier protein, streptavidin blot (Sfp) |
| --- | --- | --- |
| Nc1ncnc2c1ncn2[C@@H]1O[C@H](COP(=O)(O)O)[C@@H](O)[C@H]1O [AMP] | 456 µM |  |
| CC(C)(COP(=O)(O)OP(=O)(O)OC[C@H]1O[C@@H](n2cnc3c(N)ncnc32)[C@H](O)[C@@H]1OP(=O)(O)O)[C@@H](O)C(=O)NCCC(=O)NCCSCC(=O)NCCOCCOCCNC(=O)CCCC[C@@H]1SC[C@@H]2NC(=O)N[C@@H]21 [biotin-PEG-ACM-CoA] |  | Upon incubation of the *CoA probe with apo-AcpM and Sfp |
